In patent US6331642A, “Vitamin D3 analogs” (Hoffmann-La Roche Inc., priority 2000, dated 2001) one finds Ventral prostate weight and Seminal vesicles weight data, which are given here for one compound.

The subject of one assay is ventral prostate. Kind of assay: Antiandrogenic activity in castrated testosterone stimulated hamsters, ventral prostate. In kind it is in vivo, male Syrian hamsters. As to conditions: testosterone 20 μg s.c. daily, 14 days; vehicle 12 ± 1. How it is done:
(§1) 1,25(OH)2 -16-ene-5,6-trans D3 was evaluated for antiandrogenic activity in castrated, testosterone stimulated male Syrian hamsters.
(§2) […] Both compounds were administered in a vehicle of 0.2 ml sesame oil each. Necropsy was performed on day 15. The prostate and seminal vesicles were removed, blotted and weighed. Data were analyzed for statistical significance using the Student's t-test and are expressed as percent inhibition of stimulated response.

Another assay has as its system seminal vesicles. Kind of assay: Antiandrogenic activity in castrated testosterone stimulated hamsters, seminal vesicles. In kind it is in vivo, male Syrian hamsters. As to conditions: testosterone 20 μg s.c. daily, 14 days; vehicle 36 ± 3; mg ± SEM. As for the experimental part:
as §1, §2

Compound `CCC(=O)O[C@H]1CC[C@H]2[C@@H]3CCC4=CC(=O)CC[C@]4(C)[C@H]3CC[C@]12C` [Testosterone, testosterone propionate, reference compound] yielded a Ventral prostate weight in the assay with ventral prostate of 43 ± 5 mg. Further, the Seminal vesicles weight with seminal vesicles was found to be 105 ± 6 mg.
